# According to PubChem BioAssay AID2060338 (Molecular Pharmacology Branch, DTP, NCI, 2025):
# Test system: 556581-035-R-J1-PDC spheroids with HUVEC/MSC, viability
# Assay: Anticancer human tumor 556581-035-R-J1-PDC patient-derived ovarian carcinoma cell line growth inhibition [IpAb]
# Conditions: for IC50: curve of first compound; for viability, T/C: stronger effect = lower value
# In short: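 Multi-cell spheroids of 60% tumour cells, 25% HUVEC and 15% MSC in ultra-low-attachment U-bottom wells, treated with agents combined with ipatasertib or abemaciclib. Half-log ranges top out near clinical Cmax, or 10 microM when Cmax is unknown.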
# [1] = second compound 0.01 µM, first compound 0.0316 µM
# [2] = second compound 0.01 µM, first compound 0.1 µM
# [3] = second compound 0.0316 µM, first compound 0.0316 µM
# [4] = second compound 0.0316 µM, first compound 0.1 µM
# [5] = second compound 0.1 µM, first compound 0.0316 µM
# [6] = second compound 0.1 µM, first compound 0.1 µM
# [7] = second compound 0.316 µM, first compound 0.0316 µM
# [8] = second compound 0.316 µM, first compound 0.1 µM
# [9] = second compound 1 µM, first compound 0.0316 µM
# [10] = second compound 1 µM, first compound 0.1 µM
# 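Also: spheroids exposed to compounds for 7 days before readout.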
structure (smiles),measurement,setting,value
C=CCn1c(=O)c2cnc(Nc3ccc(N4CCN(C)CC4)cc3)nc2n1-c1cccc(C(C)(C)O)n1 + CCN1CCN(Cc2ccc(Nc3ncc(F)c(-c4cc(F)c5nc(C)n(C(C)C)c5c4)n3)nc2)CC1,IC50,second compound 0.01 µM,0.233 µM
same,IC50,second compound 0.0316 µM,0.225 µM
same,IC50,second compound 0.1 µM,0.211 µM
same,IC50,second compound 0.316 µM,0.177 µM
same,IC50,second compound 1 µM,0.0368 µM
same,"viability, T/C",[1],96.9%
same,"viability, T/C",[2],81.9%
same,"viability, T/C","second compound 0.01 µM, first compound 0.316 µM",32.1%
same,"viability, T/C","second compound 0.01 µM, first compound 1 µM",35.9%
same,"viability, T/C","second compound 0.01 µM, first compound 3.16 µM",42%
same,"viability, T/C","second compound 0.01 µM, first compound 10 µM",44.4%
same,"viability, T/C",[3],102%
same,"viability, T/C",[4],78.4%
same,"viability, T/C","second compound 0.0316 µM, first compound 0.316 µM",27.8%
same,"viability, T/C","second compound 0.0316 µM, first compound 1 µM",37.2%
same,"viability, T/C","second compound 0.0316 µM, first compound 3.16 µM",51.3%
same,"viability, T/C","second compound 0.0316 µM, first compound 10 µM",36.3%
same,"viability, T/C",[5],83.3%
same,"viability, T/C",[6],66.3%
same,"viability, T/C","second compound 0.1 µM, first compound 0.316 µM",31.8%
same,"viability, T/C","second compound 0.1 µM, first compound 1 µM",40.9%
same,"viability, T/C","second compound 0.1 µM, first compound 3.16 µM",50.6%
same,"viability, T/C","second compound 0.1 µM, first compound 10 µM",41.4%
same,"viability, T/C",[7],91.4%
same,"viability, T/C",[8],60.7%
same,"viability, T/C","second compound 0.316 µM, first compound 0.316 µM",29.2%
same,"viability, T/C","second compound 0.316 µM, first compound 1 µM",38.1%
same,"viability, T/C","second compound 0.316 µM, first compound 3.16 µM",48.1%
same,"viability, T/C","second compound 0.316 µM, first compound 10 µM",40.7%
same,"viability, T/C",[9],54.5%
same,"viability, T/C",[10],41.1%
same,"viability, T/C","second compound 1 µM, first compound 0.316 µM",32.9%
same,"viability, T/C","second compound 1 µM, first compound 1 µM",31.5%
same,"viability, T/C","second compound 1 µM, first compound 3.16 µM",42.5%
same,"viability, T/C","second compound 1 µM, first compound 10 µM",13.9%
CC(C)n1nc(-c2ccc3oc(N)nc3c2)c2c(N)ncnc21 + CCN1CCN(Cc2ccc(Nc3ncc(F)c(-c4cc(F)c5nc(C)n(C(C)C)c5c4)n3)nc2)CC1,IC50,second compound 0.01 µM,0.0044 µM
same,IC50,second compound 0.0316 µM,0.00708 µM
same,IC50,second compound 0.1 µM,0.00503 µM
same,IC50,second compound 0.316 µM,0.00649 µM
same,IC50,second compound 1 µM,< 0.000316 µM
same,"viability, T/C","second compound 0.01 µM, first compound 0.000316 µM",108%
same,"viability, T/C","second compound 0.01 µM, first compound 0.001 µM",72.6%
same,"viability, T/C","second compound 0.01 µM, first compound 0.00316 µM",54.4%
same,"viability, T/C","second compound 0.01 µM, first compound 0.01 µM",44.2%
same,"viability, T/C",[1],26.4%
same,"viability, T/C",[2],22.2%
same,"viability, T/C","second compound 0.0316 µM, first compound 0.000316 µM",86.4%
same,"viability, T/C","second compound 0.0316 µM, first compound 0.001 µM",78.7%
same,"viability, T/C","second compound 0.0316 µM, first compound 0.00316 µM",60.7%
same,"viability, T/C","second compound 0.0316 µM, first compound 0.01 µM",46.8%
same,"viability, T/C",[3],27.5%
same,"viability, T/C",[4],19.7%
same,"viability, T/C","second compound 0.1 µM, first compound 0.000316 µM",89.6%
same,"viability, T/C","second compound 0.1 µM, first compound 0.001 µM",76.1%
same,"viability, T/C","second compound 0.1 µM, first compound 0.00316 µM",51.7%
same,"viability, T/C","second compound 0.1 µM, first compound 0.01 µM",45%
same,"viability, T/C",[5],26.4%
same,"viability, T/C",[6],20.2%
same,"viability, T/C","second compound 0.316 µM, first compound 0.000316 µM",80.1%
same,"viability, T/C","second compound 0.316 µM, first compound 0.001 µM",69.8%
same,"viability, T/C","second compound 0.316 µM, first compound 0.00316 µM",61.5%
same,"viability, T/C","second compound 0.316 µM, first compound 0.01 µM",44.2%
same,"viability, T/C",[7],28.7%
same,"viability, T/C",[8],21.6%
same,"viability, T/C","second compound 1 µM, first compound 0.000316 µM",41.9%
same,"viability, T/C","second compound 1 µM, first compound 0.001 µM",52.7%
same,"viability, T/C","second compound 1 µM, first compound 0.00316 µM",38.4%
same,"viability, T/C","second compound 1 µM, first compound 0.01 µM",31.9%
same,"viability, T/C",[9],28.4%
same,"viability, T/C",[10],23.1%
